From US5959109A, “Compounds and methods for increasing endogenous levels of corticotropin-releasing factor” (Neurocrine Biosciences, Inc., priority 1996, dated 1999)
Ends that are not written are not given here.

Legend:
[1] = test system: CRF/CRF-BP complexes; test: ELISA of CRF/CRF-BP complex in NP-40 solubilized cerebrocortical brain tissue (FIG. 3); assay type: binding, human; conditions: post-mortem controls and Alzheimer's disease patients
Protocol: FIG. 3 is a graph displaying the results of ELISAs testing the ability of a representative ligand inhibitor, Compound No. 35, to displace endogenous CRF from CRF-BP in brain tissue from Alzheimer's disease patients and normal controls.
Another ligand inhibitor, Compound No. 35, was tested for its ability to inhibit CRF/CRF-BP complexes in NP-40 solubilized human cerebrocortical brain tissue obtained postmortem from controls and Alzheimer disease patients. Briefly, 0.1-0.5 g of brain tissue was homogenized in phosphate-buffered saline containing 0.2% NP-40. The homogenate was clarified by centrifugation at 3000×g for 10 minutes. Supernatants were assayed by ELISA for the formation of CRF/CRF-BP complex in the presence or absence of Compound No. 35.

[2] = biological target: T1, human recombinant CRF-BP (Homo sapiens, UniProt P24387); test: LIRMA: displacement of 125I-h/rCRF from CRF-BP, Ki; assay type: binding; conditions: inhibitory binding affinity constant (Ki)
T1 construct: made in house
T1 sequence (P24387 25-322): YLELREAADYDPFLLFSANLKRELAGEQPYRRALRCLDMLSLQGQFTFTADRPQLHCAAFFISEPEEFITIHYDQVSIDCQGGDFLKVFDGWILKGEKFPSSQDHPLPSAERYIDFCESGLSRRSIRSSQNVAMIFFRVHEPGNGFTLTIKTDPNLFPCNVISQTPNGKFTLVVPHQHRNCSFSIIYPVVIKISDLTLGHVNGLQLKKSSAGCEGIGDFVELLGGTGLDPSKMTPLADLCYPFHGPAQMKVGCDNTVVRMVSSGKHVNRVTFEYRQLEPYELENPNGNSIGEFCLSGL
Protocol: In LIRMA CRF-BP isolated from brain tissue, serum, or cells expressing a recombinant form, is added to wells of a 96-well plate, to small polypropylene microfuge tubes, or to glass borosilicate tubes in a binding buffer (0.02% NP-40 in 50 mM phosphate-buffered saline). ^125 I-h/rCRF (New England Nuclear) and the candidate ligand inhibitor at 10 μM are added and the reaction is incubated for 1 hour at room temperature. An appropriately diluted anti-CRF-BP antibody, such as a rabbit anti-hCRF-BP (Potter et al., Proc. Natl. Acad. Sci. USA 89:4192-4196, 1992) is added to each tube, and after further incubation, bound complexes are precipitated by the further addition of a goat anti-rabbit antibody. The precipitate containing ^125 I-CRF is collected by centrifugation and the amount of radioactivity in the pellet is determined by a gamma counter. If the candidate ligand inhibitor displaces CRF from CRF-BP, the pellets will contain less radioactivity in comparison to controls in which no candidate peptide is added. Maximum inhibition (i.e., 100%) of the binding of ^125 I-h/rCRF to the CRF-BP is defined by the amount of radioactivity left in the pellets after incubation with 10 μM of the CRF-BP peptide ligand h/rCRF (6-33). Thus, the binding potency of the candidate ligand inhibitor will be measured relative to the potency of the standard h/rCRF (6-33).
Thus, a ligand having a Ki of less than that of hCRF will bind more strongly to hCRF-BP than will hCRF itself, and a ligand having a higher value will have a relatively lower binding affinity.
The assay is performed in 600 μl polypropylene microfuge tubes or a 96-well plate. First, 50 μl of a 250 ng/ml of purified recombinant CRF-BP is added to 150 μl of PBS binding buffer (50 mM sodium phosphate, 0.15M NaCl, and 0.02% NP-40). Next, ^125 I-h/r CRF at a final concentration of 200 pM and 50 μl of a 10-100 μM concentration of the ligand inhibitor are added and incubated for 1 hour at room temperature. To the reaction, 50 μl of anti-CRF-BP antibody, 5144, diluted 1:1000 with assay buffer is added to each tube and allowed to bind for a further 1 hour at room temperature. The total volume in all tubes is adjusted to 300 μl with assay buffer. Bound complexes are precipitated by the addition of 200 μl of preprecipitated goat anti-rabbit (GAR) second antibody at 1:20 in 1% normal rabbit serum, 4% PEG, 50 mM sodium phosphate, 0.1% sodium azide, followed by incubation for 1 hour at room temperature. The antibody-bound ^125 I-CRF precipitate is then collected by centrifugation (3000×g) at 4° C. for 20 minutes in a Beckman GS-15R centrifuge. Using a Beckman Biomer 1000 robotic workstation, the tubes are aspirated and washed once with 600 μl of PBS plus 0.02% NP-40. Tubes containing the pellets are then transferred to 12×74 mm counting tubes and counted in a gamma counter.
Inhibitory binding affinity constant (Ki) values are determined using the method of Munson et al., Anal. Biochem. 107:220, 1980.

[3] = Automated passive avoidance learning; assay type: in vivo, rat; conditions: oral, 5 minutes after training period; FIGS. 5A, 5B
Protocol: FIGS. 5A and 5B are graphs depicting the effect of administration of representative ligand inhibitors of this invention, Compound Nos. 97-1 and 153, respectively. The ligand inhibitors were administered 5 minutes post-training period in the passive avoidance test.
The apparatus for both rats and mice is the same as used in active avoidance testing (see Example 14).
For the training trial, the animal is placed individually in one compartment of the learning apparatus, which is separated from a second compartment by a guillotine door. Following a three minute habituation period, the door is opened and the latency to enter the second compartment is recorded. When the animal enters with all four paws, the door is closed, and a 0.5 second AC footshock (Coulburn precision shocker) is delivered. After five seconds, the subject is removed and placed in its home cage. At the time of testing (usually 1-7 days later), the animal is returned to the compartment in which it was initially placed for the learning trial, the door is opened and the latency to enter the second compartment is recorded, but the animal is not shocked. […]
For most strains of rats with weights between 150 and 350 grams, an effective footshock intensity ranges from 0.2-1.0 mA. […] The latency time of rats to enter the dark compartment is measured. […]

[4] = test system: CRF receptors; conditions: rat, in vivo; cited from earlier work
[5] = test system: CRF receptors (rat anterior pituitary cells); test: ACTH secretion from rat anterior pituitary cells (CRF agonist/antagonist activity); assay type: cell-based; conditions: for CRF agonist activity relative to standard oCRF: oCRF arbitrarily 1.0
Protocol: Candidate ligand inhibitors may be screened for their ability to displace CRF from the CRF/CRF-BP complex by biological assay or by in vitro assay. One suitable biological assay is the measurement of ACTH release from cultured pituitary cells. This assay is performed in the following manner. Anterior pituitary glands from rats are washed six times with sterile HEPES buffer and transferred to a solution containing collagenase. After subsequent transfer to a 25 ml Bellco dispersion flask, the pituitaries are stirred for 30 minutes at 37° C., triturated, incubated for a further 30 minutes, and again triturated. The partially dispersed cells are then collected by centrifugation. The cell pellet is resuspended in 10 ml of neuraminidase and again collected by centrifugation. The pellet is reconstituted in 25 ml of BBM-P (BBM (Irvine Scientific) plus 100 μg/L, cortisol, 1 μg/L insulin, 0.1 μg/L EGF2, 0.4 μg/L T3, 0.7 μg/L PTH, 10 μg/L glucagon, and 2% fetal bovine serum), centrifuged again, and the resultant pellet is finally reconstituted in BBM-P. The cells are then plated at a density of 50,000-100,000/well in a 48 well plate and incubated for 2 days. On the day of assay the cells are washed once with BBM-T in preparation for stimulation with the peptide candidates or CRF. Cells are stimulated with a maximally stimulating dose of h/rCRF (1 nM) and ACTH release is measured by RIA or immunoradiometric assay. When a blocking concentration of CRF-BP is added, the amount of ACTH that is released is reduced and expressed as a fraction of the maximal release. The ligand inhibitor is added at various doses. The potency of the peptide in displacing CRF from CRF-BP is measured by the amount of ACTH release expressed as a fraction of the maximal release caused by CRF given alone.
An additional assay using rat anterior pituitary cells to measure ACTH secretion can be carried out to determine whether a ligand inhibitor functions as a CRF agonist of hCRF receptors. […] Antagonistic action may be determined by performing the assay in the presence of a challenge dose of CRF. […]

[6] = cited from earlier work
[7] = test system: human CRF-BP; conditions: cited from earlier work

O=c1oc2ccc(Cl)cc2c(O)c1C=Nc1nc2ccccc2s1 [Compound 35]
inhibition of formation of CRF/CRF-BP complexes in brain tissue [1]: inhibits formation of CRF/CRF-BP complexes in brains of controls and Alzheimer's disease patients

O=c1c(C=Nc2nc3ccccc3[nH]2)c(O)n(CCCc2ccccc2)c(=S)n1CCCc1ccccc1 [Compound 97-1]
Ki [2]: < 50 nM
latency time to entering the dark compartment [3]: increase in medium latency time

CN1[C@@H]2CC[C@H]1C[C@@H](OC(=O)C(CO)c1ccccc1)C2 (stereo partly shown) [atropine]
CRF receptors after treatment [4]: increase in CRF receptors

hCRF (6-33): CRF-BP peptide ligand h/rCRF (6-33) (ISLDLTFHLLREVLEMARAEQLAQQAHS; Corticoliberin; UniProt P06850 159-186, looked up, fragment)
CRF antagonist activity [5]: does not exhibit substantial CRF antagonist activity
CRF agonist activity relative to standard oCRF [5]: less than 0.1%

hCRF (9-33): The peptide hCRF (9-33) (DLTFHLLREVLEMARAEQLAQQAHS; Corticoliberin; UniProt P06850 162-186, looked up, fragment)
CRF agonist activity relative to standard oCRF [5]: less than 0.01%

urocortin: the human neuropeptide urocortin (DNPSLSIDLTFHLLRTLLELARTQSQRERAEQNRIIFDSV; ends and bridges not checked; UniProt P55089 83-122, looked up)
feeding behavior ([6]; animals): significantly suppress feeding behavior in animals
blood pressure ([6]; in vivo): lowering blood pressure
affinity for CRF-BP [7]: high affinity
